The source made the active and inactive calls. No cut-off for these calls is given here.
What was measured:
[1] = test system: U373-MAGI; test: Reduction in 5-aza-dCTP level in human U373-MAGI cells at 2.5 nM preincubated for 2 hrs followed by 5-aza-C addition measured after 4 hrs by LC-MS/MS analysis; assay type: functional, cell-based
[2] = test system: U373-MAGI; test: Reduction in dCTP level in human U373-MAGI cells at 2.5 nM preincubated for 2 hrs followed by 5-aza-dC addition measured after 4 hrs by LC-MS/MS analysis relative to 5-aza-dC; assay type: functional, cell-based
[3] = test system: Human immunodeficiency virus 1; test: Antiviral activity against VSV-G pseudotyped HIV-1 NL4-3 infected in human U373-MAGI cells assessed as reduction in viral infectivity at 2.5 nM incubated for 4 hrs prior to viral infection measured at 72 hrs post infection by flow cytometric analysis; assay type: functional, organism-based
[4] = test system: U373-MAGI; test: Reduction in 5-aza-dCTP level in human U373-MAGI cells at 25 nM preincubated for 2 hrs followed by 5-aza-C addition measured after 4 hrs by LC-MS/MS analysis; assay type: functional, cell-based
[5] = test system: U373-MAGI; test: Effect on dRGU-TP level in human U373-MAGI cells at 2.5 nM preincubated for 2 hrs followed by 5-aza-dC addition measured after 4 hrs by LC-MS/MS analysis; assay type: functional, cell-based
[6] = test system: U373-MAGI; test: Reduction in dRGU-TP level in human U373-MAGI cells at 2.5 nM preincubated for 2 hrs followed by 5-aza-C addition measured after 4 hrs by LC-MS/MS analysis; assay type: functional, cell-based
[7] = test system: U373-MAGI; test: Reduction in dTTP level in human U373-MAGI cells at 25 nM after 6 hrs by LC-MS/MS analysis; assay type: functional, cell-based
[8] = test system: U373-MAGI; test: Reduction in dATP level in human U373-MAGI cells at 25 nM after 6 hrs by LC-MS/MS analysis; assay type: functional, cell-based
[9] = test system: U373-MAGI; test: Reduction in dCTP level in human U373-MAGI cells at 2.5 nM after 6 hrs by LC-MS/MS analysis; assay type: functional, cell-based
[10] = test system: U373-MAGI; test: Increase in 5-aza-dCTP/dCTP ratio in human U373-MAGI cells at 25 nM preincubated for 2 hrs followed by 5-aza-C addition measured after 4 hrs by LC-MS/MS analysis relative to 5-aza-C; assay type: functional, cell-based
[11] = test system: U373-MAGI; test: Reduction in dCTP level in human U373-MAGI cells at 25 nM preincubated for 2 hrs followed by 5-aza-dC addition measured after 4 hrs by LC-MS/MS analysis relative to 5-aza-dC; assay type: functional, cell-based
[12] = test system: U373-MAGI; test: Reduction in dCTP level in human U373-MAGI cells at 25 nM preincubated for 2 hrs followed by 5-aza-C addition measured after 4 hrs by LC-MS/MS analysis relative to 5-aza-C; assay type: functional, cell-based
[13] = test system: U373-MAGI; test: Increase in 5-aza-dCTP/dCTP ratio in human U373-MAGI cells at 25 nM preincubated for 2 hrs followed by 5-aza-dC addition measured after 4 hrs by LC-MS/MS analysis relative to 5-aza-dC; assay type: functional, cell-based
[14] = Cytotoxicity against human U373-MAGI cells at 2.5 nM measured at 72 hrs by Celltiter-Glo luminescent cell viability assay; assay type: cell-based; conditions: 0.0025 µM
[15] = test system: U373-MAGI; test: Reduction in dRGU-TP level in human U373-MAGI cells at 25 nM preincubated for 2 hrs followed by 5-aza-C addition measured after 4 hrs by LC-MS/MS analysis; assay type: functional, cell-based
[16] = test system: U373-MAGI; test: Reduction in dGTP level in human U373-MAGI cells at 2.5 nM after 6 hrs by LC-MS/MS analysis; assay type: functional, cell-based
[17] = test system: U373-MAGI; test: Reduction in dGTP level in human U373-MAGI cells at 25 nM after 6 hrs by LC-MS/MS analysis; assay type: functional, cell-based
[18] = test system: U373-MAGI; test: Reduction in dTTP level in human U373-MAGI cells at 2.5 nM after 6 hrs by LC-MS/MS analysis; assay type: functional, cell-based
[19] = test system: Human immunodeficiency virus 1; test: Potentiation of 5-Aza-C-induced antiviral activity against VSV-G pseudotyped HIV-1 NL4-3 infected in human U373-MAGI cells assessed as decrease in 5-Aza-C EC50 at 2.5 nM preincubated for 2 hrs followed by 5-Aza-C addition for 2 hrs and subsequent viral infection measured at 72 hrs post infection by flow cytometric analysis relative to control; assay type: functional
[20] = test system: U373-MAGI; test: Increase in 5-aza-dCTP/dCTP ratio in human U373-MAGI cells at 2.5 nM preincubated for 2 hrs followed by 5-aza-C addition measured after 4 hrs by LC-MS/MS analysis relative to 5-aza-C; assay type: functional, cell-based
[21] = test system: U373-MAGI; test: Effect on 5-aza-dCTP level in human U373-MAGI cells at 2.5 nM preincubated for 2 hrs followed by 5-aza-dC addition measured after 4 hrs by LC-MS/MS analysis; assay type: functional, cell-based
[22] = test system: U373-MAGI; test: Effect on 5-aza-dCTP level in human U373-MAGI cells at 25 nM preincubated for 2 hrs followed by 5-aza-dC addition measured after 4 hrs by LC-MS/MS analysis; assay type: functional, cell-based
[23] = test system: U373-MAGI; test: Effect on dRGU-TP level in human U373-MAGI cells at 25 nM preincubated for 2 hrs followed by 5-aza-dC addition measured after 4 hrs by LC-MS/MS analysis; assay type: functional, cell-based
[24] = test system: U373-MAGI; test: Increase in 5-aza-dCTP/dCTP ratio in human U373-MAGI cells at 2.5 nM preincubated for 2 hrs followed by 5-aza-dC addition measured after 4 hrs by LC-MS/MS analysis relative to 5-aza-dC; assay type: functional, cell-based
[25] = test system: U373-MAGI; test: Reduction in dCTP level in human U373-MAGI cells at 25 nM after 6 hrs by LC-MS/MS analysis; assay type: functional, cell-based
[26] = test system: U373-MAGI; test: Reduction in dCTP level in human U373-MAGI cells at 2.5 nM preincubated for 2 hrs followed by 5-aza-C addition measured after 4 hrs by LC-MS/MS analysis; assay type: functional, cell-based
[27] = Reduction in dATP level in human U373-MAGI cells at 2.5 nM after 6 hrs by LC-MS/MS analysis; assay type: functional; set-up: scale not given: the % may be the effect or the level left
[28] = target: Human immunodeficiency virus type 1 reverse transcriptase (Human immunodeficiency virus 1) (UniProt Q72547); test: Inhibition of HIV-1 reverse transcriptase assessed as inhibition of primer extension using 5' 32P-end-labeled 17-mer DNA/40-mer RNA as primer/template up to 1 mM measured after 5 mins by PAGE analysis

In the case of `Nc1ccn([C@@H]2O[C@H](CO)[C@@H](O)C2(F)F)c(=O)n1` [GEMCITABINE], the Activity [1] is reported as “inactive”, the Activity [2] is reported as “Active” and the Activity [3] is reported as “Active”. The Activity [4] was “Active”, the Activity [5] was “inactive” and the Activity [6] was “inactive”. The Activity [7] was “inactive”, the Activity [8] was “Active” and the Activity [9] was “inactive”. The Activity [10] was “inactive”, the Activity [11] was “Active” and the Activity [12] was “Active”. For the same compound, the Activity [13] was “Active”, the Activity [14] was “Non-toxic” and the Activity [15] was “Active”. For the same compound, the Activity [16] was “inactive”, the Activity [17] was “Active” and the Activity [18] was “inactive”. For the same compound, the “fold change (FC)” value [19] was 2.5, the Activity [20] was “inactive” and the Activity [21] was “inactive”. For the same compound, the Activity [22] was “inactive”, the Activity [23] was “inactive” and the Activity [24] was “Active”. For the same compound, the Activity [25] was “Active”, the Activity [26] was “Active” and the Activity [27] was 30%.

For `Nc1ncn([C@@H]2O[C@H](COP(=O)(O)OP(=O)(O)OP(=O)(O)O)[C@@H](O)[C@H]2O)c(=O)n1`, the inhibition [28] was “inactive”.

Reference: ChEMBL document CHEMBL3797079, “Synergistic reduction of HIV-1 infectivity by 5-azacytidine and inhibitors of ribonucleotide reductase” (Bioorg Med Chem, 2016)
